Data: publication PMC2923189, “An Oligopeptide Transporter of Mycobacterium tuberculosis Regulates Cytokine Release and Apoptosis of Infected Macrophages” (PLoS ONE, 2010)

Tests used:
[1] = target: T1, OppAMTB (Mycobacterium tuberculosis, UniProt P9WGU5)
T1 construct: gene oppA

[2] = target: OppA of M. tuberculosis (OppAMTB), substrate-binding polypeptide of the Rv1280c-Rv1283c peptide transporter, recombinant wild type (Mycobacterium tuberculosis) (UniProt P9WGU5); assay: radioligand binding
Sequence of OppA of M. tuberculosis (OppAMTB), substrate-binding polypeptide of the Rv1280c-Rv1283c peptide transporter, recombinant wild type (Mycobacterium tuberculosis) (P9WGU5 57-591): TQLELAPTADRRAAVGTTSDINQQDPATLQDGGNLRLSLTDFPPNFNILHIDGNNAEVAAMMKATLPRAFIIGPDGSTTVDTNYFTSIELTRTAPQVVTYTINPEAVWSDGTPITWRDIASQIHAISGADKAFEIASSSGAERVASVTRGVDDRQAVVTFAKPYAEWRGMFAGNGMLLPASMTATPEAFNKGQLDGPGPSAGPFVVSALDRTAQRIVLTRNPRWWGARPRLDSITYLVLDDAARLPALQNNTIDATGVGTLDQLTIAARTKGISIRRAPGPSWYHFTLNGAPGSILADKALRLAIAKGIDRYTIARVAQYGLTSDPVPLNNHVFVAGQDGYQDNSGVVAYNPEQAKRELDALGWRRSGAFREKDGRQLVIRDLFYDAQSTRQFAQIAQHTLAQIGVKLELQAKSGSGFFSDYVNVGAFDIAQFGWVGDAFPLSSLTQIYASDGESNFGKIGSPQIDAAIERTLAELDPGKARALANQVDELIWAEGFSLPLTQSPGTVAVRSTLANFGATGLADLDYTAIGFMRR

T1 sequence (P9WGU5 57-591): as above

| Compound | % GSH binding with 1 mM competitor [1] | amount bound at 1 mM GSH (pmol GSH/mg protein) [2] |
| --- | --- | --- |
| N[C@@H](CS)C(=O)NCC(=O)O [cys-gly] | dipeptide glu-cys was a more efficient competitor of GSH binding than the peptide cys-gly | – |
| N[C@@H](CCC(=O)N[C@@H](CS)C(=O)O)C(=O)O [glu-cys] | dipeptide glu-cys was a more efficient competitor of GSH binding than the peptide cys-gly | – |
| glutathione (tripeptide) | – | 146 |
